The values that follow come from patent US9957270B2, “Fused pyrimidine-based hydroxamate derivatives” (Agency for Science, Technology and Research, priority 2014, dated 2018).

For assay [1], the system named is MV-4-11 cells. In words: Caspase activity assay, MV-4-11 cells. Type of assay: cell-based, human. Conditions: MV-4-11 cells; for EC50: maximal activity at 24 h, read-out: EC50 induction of caspase activity. How it is done:
(§1) Cells are cultivated and treated with test compounds in 96-well plates as described in the above Cell Culture and Anti-Proliferative Assays section. […] The incubation time can be extended up to overnight (18 h) if the Caspase activity is low. Staurosporine is used as positive control.
(§2) Y Axis is expressed as Mean±SD if applicable.

The next assay deals with PC-3 cells. In words: Caspase activity assay, PC-3 cells. Conditions: maximal caspase activity at 48 h. Type of assay: cell-based, human. How it is done: as §1, §2
The test system of assay [2] is MV-4-11 cells. The experiment in a line: Cell viability/cytotoxicity assay (CytoTox-Glo), MV-4-11 cells. Type of assay: cell-based, human. Conditions: MV-4-11 cells, 48 h, CytoTox-Glo, read-out: cell death potency EC50. The procedure: Cells are cultivated and treated with test compounds in 96-well plates as described in the above Cell Culture and Anti-Proliferative Assays section, the content of dead cells and viable cells are measured using CytoTox-Glo™ Cytotoxicity Assay kit (Promega) per manufacture's protocol. Briefly, CytoTox-Glo™ Cytotoxicity Assay Reagent (48 μL/well) is added to the cells in 96-well plate and the luminescent signals are recorded using a BioTek Synergy H4 reader, then Lysis Reagent (48 μL/well) is added and the luminescent signals derived from both dead and viable cells are recorded. Viability can be calculated by subtracting the luminescent signal resulting from experimental cell death from total luminescent values. Staurosporine is used as positive control.
Fold of cell death of treated vs untreated was monitored at different time points. […] Y Axis is expressed as Mean±SD if applicable.

A further assay has as its system PLC/PRF/5. The experiment in a line: cells. Conditions: Homo sapiens, PLC-PRF-5, read-out: In Vitro Cellular IC50 PLC/PRF/5.
The next assay concerns A549. In words: Anti-proliferative assay (cellular IC50), A549. The conditions noted are these: Homo sapiens, A549, read-out: In Vitro Cellular IC50 A549.
The next assay concerns HuH-7. In words: Anti-proliferative assay (cellular IC50), HuH-7. The conditions noted are these: Homo sapiens, Huh-7, read-out: In Vitro Cellular IC50 HuH-7.
The test system of a further assay is Daudi. The experiment in a line: Anti-proliferative assay (cellular IC50), Daudi. The conditions noted are these: Homo sapiens, read-out: In Vitro Cellular IC50 Daudi.
Another assay has as its system U138MG. In words: Anti-proliferative assay (cellular IC50), U138MG. Conditions: Homo sapiens, U138-MG, read-out: In Vitro Cellular IC50 U138MG.
The next assay deals with HCCLM3. The experiment in a line: Anti-proliferative assay (cellular IC50), HCCLM3. The conditions noted are these: Homo sapiens, HCCLM3, read-out: In Vitro Cellular IC50 HCCLM3.
In the next assay the test system is NCI-H460. In words: Anti-proliferative assay (cellular IC50), NCI-H460. Conditions: Homo sapiens, NCI-H460, read-out: In Vitro Cellular IC50 NCI-H460.
The next assay has as its target T1, PI3Kα (Homo sapiens, UniProt P42336).
T1 construct: purchased Invitrogen, or BPS Bioscience Inc., or SignalChem PV4788 / 40620 / P27-18H
The experiment in a line: Kinase enzyme assay (ADP-Glo), PI3Kα. Type of assay: biochemical. Conditions: read-out: In Vitro Enzymatic IC50 PI3Kα.

For a further assay, the target named is T2, p110α(E545K)/p85α (Homo sapiens, UniProt P42336, E545K).
T2 construct: purchased SignalChem P27-15H
T2 sequence (P42336 whole entry E545K): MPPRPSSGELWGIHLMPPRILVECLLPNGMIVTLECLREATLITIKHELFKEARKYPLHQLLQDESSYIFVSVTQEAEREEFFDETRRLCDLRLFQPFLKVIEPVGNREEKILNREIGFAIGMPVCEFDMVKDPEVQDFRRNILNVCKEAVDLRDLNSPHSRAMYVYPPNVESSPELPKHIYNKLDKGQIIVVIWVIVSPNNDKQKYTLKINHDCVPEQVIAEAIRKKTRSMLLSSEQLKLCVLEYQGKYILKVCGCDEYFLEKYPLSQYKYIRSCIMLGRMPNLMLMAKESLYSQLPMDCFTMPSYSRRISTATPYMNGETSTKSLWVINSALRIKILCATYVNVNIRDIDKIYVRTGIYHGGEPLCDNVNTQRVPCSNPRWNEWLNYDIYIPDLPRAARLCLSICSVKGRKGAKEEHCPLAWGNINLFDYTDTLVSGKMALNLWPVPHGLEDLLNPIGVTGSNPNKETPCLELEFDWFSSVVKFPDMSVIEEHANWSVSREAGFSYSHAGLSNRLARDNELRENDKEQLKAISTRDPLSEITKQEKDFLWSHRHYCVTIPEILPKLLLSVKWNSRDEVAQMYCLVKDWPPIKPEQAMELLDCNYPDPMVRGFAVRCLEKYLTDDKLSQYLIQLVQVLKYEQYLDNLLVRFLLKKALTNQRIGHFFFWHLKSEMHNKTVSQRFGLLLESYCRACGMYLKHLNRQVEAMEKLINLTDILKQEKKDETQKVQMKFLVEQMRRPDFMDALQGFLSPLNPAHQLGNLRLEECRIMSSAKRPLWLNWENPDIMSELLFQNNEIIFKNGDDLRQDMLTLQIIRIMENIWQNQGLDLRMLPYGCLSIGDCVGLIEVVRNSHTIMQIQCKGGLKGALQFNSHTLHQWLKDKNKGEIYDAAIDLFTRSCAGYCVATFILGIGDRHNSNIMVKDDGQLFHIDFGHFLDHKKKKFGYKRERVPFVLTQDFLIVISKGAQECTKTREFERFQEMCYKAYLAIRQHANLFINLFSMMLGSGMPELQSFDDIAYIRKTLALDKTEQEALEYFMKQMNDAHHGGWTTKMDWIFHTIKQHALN
T2 sequence (P27986 whole entry partner): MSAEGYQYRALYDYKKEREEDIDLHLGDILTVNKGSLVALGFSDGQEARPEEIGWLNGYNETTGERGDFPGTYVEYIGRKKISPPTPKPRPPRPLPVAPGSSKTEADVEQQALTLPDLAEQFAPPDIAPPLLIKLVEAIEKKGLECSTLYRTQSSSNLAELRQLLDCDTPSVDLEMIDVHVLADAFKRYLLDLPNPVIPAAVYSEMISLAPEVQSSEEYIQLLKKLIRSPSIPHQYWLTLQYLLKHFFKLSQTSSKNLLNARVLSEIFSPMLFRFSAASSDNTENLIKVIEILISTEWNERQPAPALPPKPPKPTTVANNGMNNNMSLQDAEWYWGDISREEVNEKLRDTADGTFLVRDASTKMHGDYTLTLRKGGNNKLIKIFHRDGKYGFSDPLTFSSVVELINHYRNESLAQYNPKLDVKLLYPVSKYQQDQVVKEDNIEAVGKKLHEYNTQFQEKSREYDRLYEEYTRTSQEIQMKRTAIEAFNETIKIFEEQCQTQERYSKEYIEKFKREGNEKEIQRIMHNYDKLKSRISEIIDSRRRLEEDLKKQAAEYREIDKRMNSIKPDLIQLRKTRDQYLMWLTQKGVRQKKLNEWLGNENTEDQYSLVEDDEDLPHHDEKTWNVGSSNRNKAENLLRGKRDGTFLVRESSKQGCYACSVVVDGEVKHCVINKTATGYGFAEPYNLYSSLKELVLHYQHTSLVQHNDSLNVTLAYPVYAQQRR
The experiment in a line: Kinase enzyme assay (ADP-Glo), PI3Kα (E545K). Type of assay: biochemical. Conditions: read-out: In Vitro Enzymatic IC50 PI3Kα (E545K). On the technique in general: In ADP-Glo the light output rises with the ADP produced.

In the next assay the target is T3, p110α(H1047R)/p85α (Homo sapiens, UniProt P42336, H1047R).
T3 construct: purchased BPS 40641
T3 sequence (P42336 whole entry H1047R): as the sequence (P42336 whole entry E545K) above, with K545E, H1047R counted along it
T3 sequence (P27986 whole entry partner): as the sequence (P27986 whole entry partner) above
In words: Kinase enzyme assay (ADP-Glo), PI3Kα (H1047R). Conditions: read-out: In Vitro Enzymatic IC50 PI3Kα (H1047R). Type of assay: biochemical.

For another assay, the target named is HDAC1 (Homo sapiens, UniProt Q13547). In words: HDAC enzyme assay, recombinant HDAC1.
HDAC1, sequence (Q13547 whole entry): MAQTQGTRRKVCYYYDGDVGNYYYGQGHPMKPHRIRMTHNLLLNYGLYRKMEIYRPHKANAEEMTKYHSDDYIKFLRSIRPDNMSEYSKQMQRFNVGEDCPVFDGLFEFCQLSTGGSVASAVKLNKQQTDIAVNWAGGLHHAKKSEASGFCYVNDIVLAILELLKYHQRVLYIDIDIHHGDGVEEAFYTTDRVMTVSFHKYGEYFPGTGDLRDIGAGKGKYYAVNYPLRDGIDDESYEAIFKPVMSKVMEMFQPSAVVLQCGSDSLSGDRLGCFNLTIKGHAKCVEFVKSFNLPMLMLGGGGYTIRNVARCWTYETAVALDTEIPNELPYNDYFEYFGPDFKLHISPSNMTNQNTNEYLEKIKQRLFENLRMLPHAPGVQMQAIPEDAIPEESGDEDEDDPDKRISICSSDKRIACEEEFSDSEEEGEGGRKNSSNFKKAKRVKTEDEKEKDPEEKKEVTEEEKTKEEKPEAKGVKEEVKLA
A further assay addresses T4, HDAC6 (Homo sapiens, UniProt Q9UBN7).
T4 sequence (Q9UBN7 1-1215): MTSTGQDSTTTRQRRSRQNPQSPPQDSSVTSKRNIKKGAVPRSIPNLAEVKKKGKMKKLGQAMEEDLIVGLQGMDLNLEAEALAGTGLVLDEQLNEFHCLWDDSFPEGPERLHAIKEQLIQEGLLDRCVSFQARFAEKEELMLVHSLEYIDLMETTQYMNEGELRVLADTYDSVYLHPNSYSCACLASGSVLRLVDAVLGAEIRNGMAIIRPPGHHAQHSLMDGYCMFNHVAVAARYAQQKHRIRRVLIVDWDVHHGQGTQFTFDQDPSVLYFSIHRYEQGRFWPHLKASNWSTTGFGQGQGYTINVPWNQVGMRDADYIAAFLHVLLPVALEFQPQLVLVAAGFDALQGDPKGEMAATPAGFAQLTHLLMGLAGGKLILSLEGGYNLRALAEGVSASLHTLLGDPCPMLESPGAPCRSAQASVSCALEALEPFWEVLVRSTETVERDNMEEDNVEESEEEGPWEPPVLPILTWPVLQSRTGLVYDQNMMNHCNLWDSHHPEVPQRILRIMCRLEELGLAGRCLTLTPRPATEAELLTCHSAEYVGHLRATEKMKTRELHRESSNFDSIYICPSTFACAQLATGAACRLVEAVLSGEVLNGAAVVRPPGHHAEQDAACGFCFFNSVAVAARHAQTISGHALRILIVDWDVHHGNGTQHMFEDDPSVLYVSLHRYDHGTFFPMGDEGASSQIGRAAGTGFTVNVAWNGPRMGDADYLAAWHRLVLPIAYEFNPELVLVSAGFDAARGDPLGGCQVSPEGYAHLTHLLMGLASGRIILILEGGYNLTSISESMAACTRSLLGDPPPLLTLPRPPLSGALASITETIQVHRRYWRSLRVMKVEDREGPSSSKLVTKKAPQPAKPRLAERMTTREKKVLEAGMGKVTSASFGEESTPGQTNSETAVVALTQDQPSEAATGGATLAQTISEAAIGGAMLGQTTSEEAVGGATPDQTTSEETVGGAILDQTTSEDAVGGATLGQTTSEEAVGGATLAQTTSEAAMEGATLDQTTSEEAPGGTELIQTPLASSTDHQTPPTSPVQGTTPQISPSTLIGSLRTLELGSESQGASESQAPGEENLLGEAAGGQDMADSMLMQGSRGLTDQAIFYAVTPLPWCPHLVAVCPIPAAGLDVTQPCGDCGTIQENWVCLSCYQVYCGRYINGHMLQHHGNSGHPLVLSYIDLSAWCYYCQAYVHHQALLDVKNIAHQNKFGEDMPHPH
The experiment in a line: HDAC enzyme assay, recombinant HDAC6.

Molecules are shown by their SMILES.

T1 sequence (P42336 whole entry): as the sequence (P42336 whole entry E545K) above, with K545E counted along it
T1 sequence (P27986 whole entry partner): as the sequence (P27986 whole entry partner) above
Method for A549: (§3) Cells were cultivated at 37° C., 5% CO2 in media containing 10% FBS and 2 mM glutamine Cells were routinely monitored with MycoAlert™ PLUS Mycoplasma Detection Kit (Lonza Walkersville, Inc.) to make sure they were mycoplasma free. Antibiotics (100 U/mL of penicillin and 100 μg/mL of streptomycin) were only added to the media used for compound dilution and cells in 96-well assay plates.
(§4) For a typical screening experiment, cells (100 μL/well) are inoculated into 96 well microtiter plates at plating densities ranging from 2,000 to 30,000 cells/well depending on the doubling time of individual cell lines and assay linearity. […] Suspension cells are treated with test compounds immediately after cell inoculation.
(§5) Test compounds are serially diluted (3-fold or 4-fold, 8-concentration) using the same media and added to the plates (15 to 25 μL/well). After 72 h of cultivation, the plates are assayed for cell cytotoxicity/viability by using the following two methods.
(§6) Cells in plates are fixed with cold trichloroacetic acid (TCA) (50% w/v in DI water, 1/4 volume of the medium in each well), and incubated at 4° C. for 1 h (adherent cells) or 2 h (suspension cells). The plates are washed 5 times (tap water×3, DI water×2) and air-dried. SRB solution 0.4% (w/v) in 1% acetic acid is added to each well (60 μL/well) and the plates are incubated at room temperature for 30 min, then washed with 1% acetic acid solution 4 times, and air-dried.
(§7) The plates are added CellTiter-Glo® Reagent (95 μL/well) and read the luminescence on a BioTek H4 reader per manufacture's protocol.
(§8) The raw data are processed using BioTek's Software Gen5 (v2.03.01) to generate inhibitory IC50 values.
Method for Daudi: as §3, §4, §5, §6, §7, §8
Method for HCCLM3: as §3, §4, §5, §6, §7, §8
Method for HuH-7: as §3, §4, §5, §6, §7, §8
Method for NCI-H460: as §3, §4, §5, §6, §7, §8
Method for PLC/PRF/5: as §3, §4, §5, §6, §7, §8
Method for U138MG: as §3, §4, §5, §6, §7, §8

One may read the EC50 as the midpoint of the concentration-response curve. As to `CS(=O)(=O)N1CCN(Cc2cc3nc(-c4cccc5[nH]ncc45)nc(N4CCOCC4)c3s2)CC1` [GDC-0941, reference compound], the EC50 stood at 12700 nM in the assay with MV-4-11 cells [1] (Homo sapiens, MV4-11) and 2750 nM in the assay with MV-4-11 cells [2] (Homo sapiens, MV4-11). The “Induction of caspase activity (comparison)” value with MV-4-11 cells [1] was “very weak activity and potency”; in the assay with PC-3 cells, “very weak activity”. Further, the IC50 was 2000 to 10000 nM with PLC/PRF/5; less than 500 nM with A549; 500 to 2000 nM in the assay on HuH-7; less than 500 nM in the assay with Daudi; 500 to 2000 nM in the assay with U138MG; 500 to 2000 nM with HCCLM3. The IC50 in the assay on NCI-H460 is less than 500 nM.

`CC(C)n1cnc2c(-c3cccc(OCCCC(=O)NO)c3)nc(N3CCOCC3)nc21` [compound 1]: the IC50 at PI3Kα is 1000 to 10000 nM; on p110α(E545K)/p85α, 1000 to 10000 nM; at p110α(H1047R)/p85α, 1000 to 10000 nM; in the assay with PLC/PRF/5, 500 to 2000 nM; at HDAC1, 10 to 100 nM; at HDAC6 it was 10 to 100 nM. Also, the IC50 was 500 to 2000 nM in the assay on A549; 500 to 2000 nM in the assay on HuH-7; less than 500 nM in the assay with Daudi; 500 to 2000 nM in the assay on U138MG; 2000 to 10000 nM in the assay on HCCLM3; 500 to 2000 nM with NCI-H460. Moreover, the “Induction of caspase activity (comparison)” value in the assay on MV-4-11 cells [1] and in the assay with PC-3 cells was “more potent than vorinostat” each time. In addition, the concentration for a half-maximal effect (EC50) with MV-4-11 cells [1] is 520 nM; in the assay on MV-4-11 cells [2], 190 nM.

As to `CCn1c(CN(C)Cc2ccc(C(=O)NO)cc2)nc2c(N3CCOCC3)nc(-c3cnc(N)nc3)nc21` [compound 7], the IC50 on PI3Kα, at p110α(E545K)/p85α, at p110α(H1047R)/p85α, on HDAC1 and at HDAC6 was 10 to 100 nM each time.
